Assay results as given in PubChem BioAssay AID2060622 (Molecular Pharmacology Branch, DTP, NCI, 2025).

System: 242566-281-R-J2-PDC complex spheroid viability
Assay: Anticancer human tumor 242566-281-R-J2-PDC patient-derived pancreatic carcinoma cell line growth inhibition [CLK]
Conditions: for IC50: curve of first compound; for viability, T/C: stronger effect = lower value
Procedure, shortened: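 Patient-derived tumor cells grown as complex spheroids with HUVEC endothelial cells and mesenchymal stem cells, treated with drug combinations. Concentrations descend in half-log steps from near clinical Cmax, or from 10 microM if Cmax unknown.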
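Note: spheroids exposed to compounds for 7 days before readout.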
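Throughout, for viability, T/C: 100% = DMSO vehicle control wells.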

COc1ccc([C@@H](O)c2cc(-c3ncnc4cc(N5CCOCC5)ccc34)c(F)cc2Cl)nn1 + CNC(=O)c1ccc(Nc2nc(OC3CCCC3)c3c(-c4ccc5nc(C)oc5c4)c[nH]c3n2)c(OC)c1
IC50 (second compound 0.0316 µM): > 10000 nM | IC50 (second compound 0.1 µM): > 10000 nM | IC50 (second compound 0.316 µM): > 10000 nM | IC50 (second compound 1 µM): 1910 nM | IC50 (second compound 3.16 µM): 129 nM | IC50 (second compound 10 µM): < 31.6 nM | viability, T/C (second compound 0.0316 µM, first compound 0.0316 µM): 106% | viability, T/C (second compound 0.0316 µM, first compound 0.1 µM): 96.5% | viability, T/C (second compound 0.0316 µM, first compound 0.316 µM): 89.5% | viability, T/C (second compound 0.0316 µM, first compound 1 µM): 141% | viability, T/C (second compound 0.0316 µM, first compound 3.16 µM): 92.4% | viability, T/C (second compound 0.0316 µM, first compound 10 µM): 66.4% | viability, T/C (second compound 0.1 µM, first compound 0.0316 µM): 88.9% | viability, T/C (second compound 0.1 µM, first compound 0.1 µM): 103% | viability, T/C (second compound 0.1 µM, first compound 0.316 µM): 89.7% | viability, T/C (second compound 0.1 µM, first compound 1 µM): 102% | viability, T/C (second compound 0.1 µM, first compound 3.16 µM): 89.2% | viability, T/C (second compound 0.1 µM, first compound 10 µM): 69.9% | viability, T/C (second compound 0.316 µM, first compound 0.0316 µM): 91.7% | viability, T/C (second compound 0.316 µM, first compound 0.1 µM): 85.7% | viability, T/C (second compound 0.316 µM, first compound 0.316 µM): 72% | viability, T/C (second compound 0.316 µM, first compound 1 µM): 81.1% | viability, T/C (second compound 0.316 µM, first compound 3.16 µM): 76.9% | viability, T/C (second compound 0.316 µM, first compound 10 µM): 55% | viability, T/C (second compound 1 µM, first compound 0.0316 µM): 69.2% | viability, T/C (second compound 1 µM, first compound 0.1 µM): 62.6% | viability, T/C (second compound 1 µM, first compound 0.316 µM): 57.7% | viability, T/C (second compound 1 µM, first compound 1 µM): 51.6% | viability, T/C (second compound 1 µM, first compound 3.16 µM): 53.1% | viability, T/C (second compound 1 µM, first compound 10 µM): 36.3% | viability, T/C (second compound 3.16 µM, first compound 0.0316 µM): 54.5% | viability, T/C (second compound 3.16 µM, first compound 0.1 µM): 51.9% | viability, T/C (second compound 3.16 µM, first compound 0.316 µM): 47.2% | viability, T/C (second compound 3.16 µM, first compound 1 µM): 39.9% | viability, T/C (second compound 3.16 µM, first compound 3.16 µM): 40.2% | viability, T/C (second compound 3.16 µM, first compound 10 µM): 33.5% | viability, T/C (second compound 10 µM, first compound 0.0316 µM): 51.3% | viability, T/C (second compound 10 µM, first compound 0.1 µM): 47.5% | viability, T/C (second compound 10 µM, first compound 0.316 µM): 46.5% | viability, T/C (second compound 10 µM, first compound 1 µM): 43.2% | viability, T/C (second compound 10 µM, first compound 3.16 µM): 41.9% | viability, T/C (second compound 10 µM, first compound 10 µM): 32.5%
